Experimental data published in patent US20150366836A1, “METHOD AND PHARMACEUTICAL COMPOSITION FOR TREATING COLORECTAL CANCER” (National Dong Hua University, priority 2014, published 2015).

Key:
[1] = system: mouse bearing inflammatory bowel disease (IBD), AOM/DSS induced; test: Mouse model bearing IBD (AOM/DSS induced), body weight and H&E staining of intestine; assay type: in vivo, C57/BL6 mice
Description: The animal experiments were approved by the National Dong-Hwa University Animal Ethics Committee and the experimental protocols were used according to the “Guide for the Care and Use of Laboratory Animals” of National Dong-Hwa University. On day 0, C57/BL6 mice (6-8 weeks old) were weighted and injected (intraperitoneal; i.p.) with 10 mg/kg body weight of azoxymethane (AOM) and then fed with 2% Dextran sodium sulfate solution (DSS solution) via water every day for 7 days. On day 8, the 2% DSS solution was changed to normal water for another 7 days. The cycle of DSS solution and water was repeated and the induction procedure was completed on day 35.
After the establishment of IBD in the experimental mice (on day 35), the mice were injected (i.p.) with 5-FU (15 mg/kg body weight) or HCD (0.64, 1.6, or 6.4 mg/kg body weight) once every three days for additional 30 days. Then, the mice were sacrificed. The colon, spleen, liver, and kidney thereof were immediately removed, observed, and further examined by H&E staining.

Caco2 cells [2] = test: Cell cycle analysis by flow cytometer (PI staining), Caco2 cells; assay type: cell-based
Description: (§1) The results of Example 2 in cell viability hinted the effects of HCD, PG, and 5-FU on arresting cell cycle. In this example, the phase of cell cycle of Caco2 and HT-29 cells after the treatment listed in Table 1 was determined by flow cytometer. Briefly, 7×10^4 cells per well were inoculated in 12-wells plate and incubated overnight at 37° C., 5% CO2. Then, cells were treated according to the treatment listed in Table 1 by indicated time period. After treatment, cells were harvested by trypsin and fixed with 70% ethanol at −20° C. for at least 3 hr. The cells were washed in cold PBS twice and then incubated with 1 mL (v/v) staining solution (20 μg/mL propidium iodide (PI), 0.1% Triton X-100, 0.2 mg/mL Rnase) at 37° C. for 30 minutes. Lastly, cells were analyzed by flow cytometer (Cytomics™ FC500, Backman, Fullerton, Calif., USA). Data from 10,000 cells were collected for each experimental group.

HT-29 cells [3] = test: Cell cycle analysis by flow cytometer (PI staining), HT-29 cells; assay type: cell-based
Description: as §1

Caco2 cells [4] = test: MTT assay cell viability, Caco2 cells; assay type: cell-based
Description: (§2) Two cell lines were used in this study, Caco2 cells and HT-29 cells. Both of them are colorectal cancer cells. Caco2 cells and HT-29 cells were maintained in DMEM (or RPMI) supplemented with 20% or 10% fetal bovine serum (FBS; GIBCO), pH 7.4 at 37° C. with continuous circulation of 5% CO2 incubator. The medium was changed every 2 days and the cells were trypsinized using trypsin/EDTA when reaching 80%-90% confluence.
(§3) In this example, the effects of HCD, PG, and 5-FU on the viability of Caco2 cells and HT-29 cells were examined. The MTT assay was employed for this purpose. The MTT (3-(4-,5-dimethylthiazol-2-yl)-2,5-diphenyltetrazolium bromide) assay is a common colorimetric method in the field for cell viability analysis. MTT (yellow tetrazolium salt) is reduced to a purple formazan by living cells and detection to the purple formazan can be calculated as the cell viability.
(§4) Briefly, cells (Caco2 or HT-29) were seeded in 96-well plate (7×10^3 cell per well) and incubated overnight (37° C., 5% CO2).
(§5) On the other hand, in the pretreatment analysis, cells (Caco2 or HT-29) were seeded in 96-well plate (7×10^3 cell per well) and incubated overnight (37° C., 5% CO2). In according to the treatments listed in the Table 1, Cells were pre-treated by HCD or PG for 6, 12, 24, 36, or 48 hr and then were treated by 5-FU for additional 24 hr.

HT-29 cells [5] = test: MTT assay cell viability, HT-29 cells; assay type: cell-based
Description: as §2, §3, §4, §5

CC1=CCCC2C1(C)CCC(C)C2(C)CCC1=CC(=O)OC1O (stereo not drawn) [HCD, 16-hydroxy-cleroda-3,13-dine-15,16-olide] was tested, and the “intestine villus arrangement (H&E staining)” value (shortened to “intestine villus arrangement”) ([1]; 0.64 mg/kg body weight i.p.) was “irregular arrangement of villus”, the “lymph node (H&E staining)” value ([1]; 0.64 mg/kg body weight i.p.) was “not infiltrated into muscle mucosa layer” and the body weight ([1]; 0.64 mg/kg body weight i.p. once every three days, 30 days) was “initially reduced”. The “intestine villus arrangement” value ([1]; 1.6 mg/kg body weight i.p.) was “arranged in neat rows nearly as seen in the control mice”, the “lymph node (H&E staining)” value ([1]; 1.6 mg/kg body weight i.p.) was “not infiltrated into muscle mucosa layer” and the “intestine villus arrangement” value ([1]; 6.4 mg/kg body weight i.p.) was “arranged in neat rows nearly as seen in the control mice”. For the same compound, the “lymph node (H&E staining)” value ([1]; 6.4 mg/kg body weight i.p.) was “not infiltrated into muscle mucosa layer”, the “cell cycle arrest at sub-G1 phase vs control (in words)” value (Caco2 cells [2]; Caco2) was “increased cell cycle arrest at sub-G1 phase” and the “G0/G1 (%)” value (Caco2 cells [2]; Caco2, 0.5 μM, 36 hr) was 43.8 ± 3.81%. The “G2/M (%)” value (Caco2 cells [2]; Caco2, 0.5 μM, 36 hr) was 20.37 ± 4.24%, the “S (%)” value (Caco2 cells [2]; Caco2, 0.5 μM, 36 hr) was 17.3 ± 0.44% and the “Sub G1 (%)” value (Caco2 cells [2]; Caco2, 0.5 μM, 36 hr) was 14.4 ± 1.73%. The “G0/G1 (%)” value (Caco2 cells [2]; Caco2, 0.5 μM, 48 hr) was 44.13 ± 3.26%, the “G2/M (%)” value (Caco2 cells [2]; Caco2, 0.5 μM, 48 hr) was 21.2 ± 2.46% and the “S (%)” value (Caco2 cells [2]; Caco2, 0.5 μM, 48 hr) was 15.93 ± 0.9%. The “Sub G1 (%)” value (Caco2 cells [2]; Caco2, 0.5 μM, 48 hr) was 14.47 ± 5.05%, the “G0/G1 (%)” value (Caco2 cells [2]; Caco2, 2 μM, 36 hr) was 29.73 ± 4.22 % and the “G2/M (%)” value (Caco2 cells [2]; Caco2, 2 μM, 36 hr) was 23.73 ± 3.91%. For the same compound, the “S (%)” value (Caco2 cells [2]; Caco2, 2 μM, 36 hr) was 13.03 ± 0.5%, the “Sub G1 (%)” value (Caco2 cells [2]; Caco2, 2 μM, 36 hr) was 28.8 ± 4.2 % and the “G0/G1 (%)” value (Caco2 cells [2]; Caco2, 2 μM, 48 hr) was 25.73 ± 4.63%. For the same compound, the “G2/M (%)” value (Caco2 cells [2]; Caco2, 2 μM, 48 hr) was 22.03 ± 2.11%, the “S (%)” value (Caco2 cells [2]; Caco2, 2 μM, 48 hr) was 11.63 ± 1.08% and the “Sub G1 (%)” value (Caco2 cells [2]; Caco2, 2 μM, 48 hr) was 36.17 ± 7.48 %. For the same compound, the “G0/G1 (%)” value (Caco2 cells [2]; Caco2, 5 μM, 36 hr) was 19.4 ± 1.82 %, the “G2/M (%)” value (Caco2 cells [2]; Caco2, 5 μM, 36 hr) was 14.77 ± 0.8% and the “S (%)” value (Caco2 cells [2]; Caco2, 5 μM, 36 hr) was 9.9 ± 0.98 %. For the same compound, the “Sub G1 (%)” value (Caco2 cells [2]; Caco2, 5 μM, 36 hr) was 51.77 ± 1.65 %, the “G0/G1 (%)” value (Caco2 cells [2]; Caco2, 5 μM, 48 hr) was 15.67 ± 6.25 % and the “G2/M (%)” value (Caco2 cells [2]; Caco2, 5 μM, 48 hr) was 12.9 ± 0.87%. For the same compound, the “S (%)” value (Caco2 cells [2]; Caco2, 5 μM, 48 hr) was 9.87 ± 0.55%, the “Sub G1 (%)” value (Caco2 cells [2]; Caco2, 5 μM, 48 hr) was 54.2 ± 0.62 % and the “G2/M phase after pre-treatment then 5-FU (in words)” value (Caco2 cells [2]; Caco2, 12 and 24 hr pretreatment of 1 or 2 μM, then 5-FU) was “decreased”. For the same compound, the “cell cycle arrest at sub-G1 phase vs control (in words)” value (HT-29 cells [3]; HT-29) was “increased cell cycle arrest at sub-G1 phase”, the “G0/G1 (%)” value (HT-29 cells [3]; HT-29, 0.5 μM, 24 hr) was 82.9 ± 0.849 % and the “G2/M (%)” value (HT-29 cells [3]; HT-29, 0.5 μM, 24 hr) was 8.2 ± 0 %. The “S (%)” value (HT-29 cells [3]; HT-29, 0.5 μM, 24 hr) was 3.3 ± 0.424 %, the “Sub G1 (%)” value (HT-29 cells [3]; HT-29, 0.5 μM, 24 hr) was 4.35 ± 0.495% and the “G0/G1 (%)” value (HT-29 cells [3]; HT-29, 0.5 μM, 36 hr) was 59.25 ± 0.54%. For the same compound, the “G2/M (%)” value (HT-29 cells [3]; HT-29, 0.5 μM, 36 hr) was 14.25 ± 1.01 %, the “S (%)” value (HT-29 cells [3]; HT-29, 0.5 μM, 36 hr) was 15.85 ± 1.68% and the “Sub G1 (%)” value (HT-29 cells [3]; HT-29, 0.5 μM, 36 hr) was 7.7 ± 0.81%. For the same compound, the “G0/G1 (%)” value (HT-29 cells [3]; HT-29, 2 μM, 24 hr) was 33.9 ± 1.414 %, the “G2/M (%)” value (HT-29 cells [3]; HT-29, 2 μM, 24 hr) was 22 ± 1.414% and the “S (%)” value (HT-29 cells [3]; HT-29, 2 μM, 24 hr) was 17.95 ± 0.212%. For the same compound, the “Sub G1 (%)” value (HT-29 cells [3]; HT-29, 2 μM, 24 hr) was 20.7 ± 0.707 %, the “G0/G1 (%)” value (HT-29 cells [3]; HT-29, 2 μM, 36 hr) was 35.95 ± 1.34 % and the “G2/M (%)” value (HT-29 cells [3]; HT-29, 2 μM, 36 hr) was 9.05 ± 1.485 %. For the same compound, the “S (%)” value (HT-29 cells [3]; HT-29, 2 μM, 36 hr) was 7.8 ± 0.14 %, the “Sub G1 (%)” value (HT-29 cells [3]; HT-29, 2 μM, 36 hr) was 43.95 ± 3.89 % and the “G0/G1 (%)” value (HT-29 cells [3]; HT-29, 5 μM, 24 hr) was 27.5 ± 4.808%. The “G2/M (%)” value (HT-29 cells [3]; HT-29, 5 μM, 24 hr) was 23.5 ± 2.97%, the “S (%)” value (HT-29 cells [3]; HT-29, 5 μM, 24 hr) was 15.1 ± 2.546% and the “Sub G1 (%)” value (HT-29 cells [3]; HT-29, 5 μM, 24 hr) was 22.95 ± 7.99 %. The “G0/G1 (%)” value (HT-29 cells [3]; HT-29, 5 μM, 36 hr) was 16.4 ± 4.95 %, the “G2/M (%)” value (HT-29 cells [3]; HT-29, 5 μM, 36 hr) was 11.15 ± 1.20 % and the “S (%)” value (HT-29 cells [3]; HT-29, 5 μM, 36 hr) was 7.5 ± 1.13 %. The “Sub G1 (%)” value (HT-29 cells [3]; HT-29, 5 μM, 36 hr) was 62 ± 6.93 %, the “cell cycle phases after pre-treatment then 5-FU (in words)” value (HT-29 cells [3]; HT-29, pre-treatment, then 5-FU) was “increase of sub G1 phase and decrease of G2/M phase” and the “effect of pre-treating on efficacy of 5-FU in the subsequent treatment (MTT)” value (Caco2 cells [4]; Caco2, pre-treatment 6-48 hr, then 5-FU 2 μM 24 hr) was “significantly enhanced the efficacy of 5-FU”. For the same compound, the IC50 (Caco2 cells [4]; Caco2 cells, 48 hr treatment) was 5 µM, the “effect of pre-treating on efficacy of 5-FU in the subsequent treatment (MTT)” value (HT-29 cells [5]; HT-29, pre-treatment 6-48 hr, then 5-FU 2 μM 24 hr) was “significantly enhanced the efficacy of 5-FU” and the IC50 (HT-29 cells [5]; HT-29 cells, 36 hr treatment) was 5 µM.
